Assay results taken from US20200222400A1, “METHODS FOR THE TREATMENT OF NEUROLOGICAL DISORDERS” (Yumanity Therapeutics, Inc., priority 2019, published 2020).

Tests used:
[1] = tested on: apolipoprotein E4 (ApoE4) Alzheimer's disease yeast model; test: ApoE4 yeast model rescue (growth, OD600); assay type: cell-based, Saccharomyces cerevisiae; details: 12-point dose
Description: Strain ApoE-mga2Δ was generated by amplifying 1000 base pairs (bp) upstream and downstream of the MGA2 ORF in a strain in which MGA2 was deleted using a G418 (GENETICIN®) resistance cassette (kanMX) (Piotrowski et al. Proc. Natl. Acad. Sci. USA 112(12):E1490-1497, 2015) and transforming the resulting deletion cassette into the ApoE4 strain in the BY4741 (ATCC 201388) genetic background. The ApoE strain is described, for example, in International Patent Application Publication No. WO 2016/040794, which is incorporated herein by reference in its entirety.
(§1) All compound profiling experiments were performed using the same basic protocol. Different genetic backgrounds (e.g., gene deletions) or conditions (e.g., addition of oleic and palmitoleic acid) were replaced as indicated below.
Yeast were cultured using standard techniques in complete synthetic media (CSM) and yeast nitrogen base supplemented with 2% (w/v) carbon source (glucose, raffinose, or galactose) to regulate the expression of the toxic disease protein. An initial starter culture was inoculated in 3 mL CSM-Glucose media and incubated overnight in a 30° C. shaker incubator (225 rpm). […]
(§2) After yeast delivery, assay plates were incubated under humidified conditions at 30° C. for 24 to 40 h. […] The growth of yeast was monitored by reading the OD600 of each well using a microplate reader (Perkin Elmer EnVision™). […]

Ole1/SCD = test: Yeast growth inhibition in control / wild-type condition (OD600); assay type: cell-based, Saccharomyces cerevisiae; details: ApoE4 strain, non-inducing conditions, raffinose
Description: Strain GMYF was constructed from the ABC16/Green monster strain described in Suzuki et al. Nat. Methods 8(2):159-164, 2011. In this strain, YAP1 was deleted using a HIS3-MX6 cassette, and FLR1 was deleted using a NAT-MX6 cassette using standard methods. The knockout cassettes were PCR-amplified from plasmid templates (see, e.g., Bahler et al. Yeast 14(10):943-951, 1998; Longtine et al. Yeast 14(10):953-961, 1998) and transformed into yeast using lithium acetate-based transformation (Gietz et al. Methods Mol. Biol. 1205:1-12, 2014). The yap1::his3 deletion strain was selected on media lacking histidine and flr1::NAT on plates containing 100 μg/mL nourseothricin. All strains were confirmed by diagnostic PCR. Strain W303 pdr1Δ pdr3Δ was constructed from W303-1A (American Type Culture Collection (ATCC) 208352) by deleting PDR1 and PDR3 with kan-MX6 cassettes separately in MATa and MATα W303a isolates, mating, sporulating, and identifying the double deletion haploids by tetrad dissection and identification of non-parental ditype tetrads. Strain W-erg3 was derived from W303 pdr1Δ pdr3 by deleting SNQ2 with NAT-MX6, YAP1 with HIS3-MX6, and ERG3 with BleMX. […]
as §2

[2] = tested on: cellular fatty acid desaturase activity (Ole1); test: Quantitative lipid profiling of yeast by LC-MS/MS; assay type: cell-based, Saccharomyces cerevisiae
Procedure: Overnight cultures of yeast strain W303 pdr1Δ pdr3Δ were diluted into CSM media with 2% (w/v) raffinose, OD600 0.25, and grown for 4 h before resuspending at an OD600 of 0.2 in CSM media with 2% (w/v) galactose and adding Compound 2 or DMSO at the indicated concentrations. Cells were grown for the indicated timepoints before centrifugation, washing once in PBS, and freezing pellets. Lipids were extracted from pellets by resuspending the pellets in 600 μL methanol, 300 μL water, and 400 μL chloroform, followed by cell lysis by vortexing with glass beads for 1 min. Samples were then centrifuged at 10,000×g for 10 min, and the bottom layer that formed (organic/lipids) was moved into a new tube and evaporated. Samples were then analyzed by LC/MS/MS using a Thermo Scientific Q Exactive™ Orbitrap™ coupled to a Dionex UltiMate® 3000 ultra-high performance liquid chromatography system, following the method described in Tafesse et al. PLoS Pathog. 11(10): e1005188, 2015.

yeast OLE1 = target: T1, yeast OLE1 (Saccharomyces cerevisiae, UniProt P21147); test: Growth of yeast surviving solely on yeast OLE1; assay type: cell-based; details: percent of DMSO-treated condition
T1 construct: expressed in transfected cells; host or cells: S. cerevisiae ole1Δ strain (W303 pdr1Δ pdr3Δ background), pRS316 plasmid, TDH3 promoter
T1 sequence (P21147 1-510): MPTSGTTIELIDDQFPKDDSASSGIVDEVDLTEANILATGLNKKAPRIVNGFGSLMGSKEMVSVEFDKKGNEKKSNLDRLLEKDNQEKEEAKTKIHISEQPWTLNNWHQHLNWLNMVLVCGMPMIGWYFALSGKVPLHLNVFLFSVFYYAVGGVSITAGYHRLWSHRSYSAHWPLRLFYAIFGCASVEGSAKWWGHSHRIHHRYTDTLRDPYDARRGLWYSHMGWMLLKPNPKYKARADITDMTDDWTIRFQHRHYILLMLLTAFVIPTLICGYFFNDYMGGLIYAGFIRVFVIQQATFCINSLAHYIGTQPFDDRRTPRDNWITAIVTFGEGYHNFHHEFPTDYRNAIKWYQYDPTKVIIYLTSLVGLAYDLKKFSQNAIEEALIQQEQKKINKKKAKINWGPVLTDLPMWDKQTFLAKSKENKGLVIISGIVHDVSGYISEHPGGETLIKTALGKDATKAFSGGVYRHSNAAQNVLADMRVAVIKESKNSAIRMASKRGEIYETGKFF
Description: (§3) To generate yeast strains expressing SCD1 or SCD5 as the sole desaturase, the human SCD1 and SCD5 genes were cloned from cDNAs (Harvard PlasmID database Clone ID HsCD00340237 for SCD1 and HsCD00342695 for SCD5) into yeast plasmid pRS316 (ATCC 77145) between the yeast TDH3 promoter and the CYC1 terminator. The coding sequence of yeast OLE1 was also cloned into this plasmid). These clones were then transformed into the ole1Δ strain and plated on CSM-Ura media (CSM lacking uracil) with 2% glucose (w/v) and independent colonies were isolated and amplified.
as §1
(§4) Compound stocks (10 mM in 100% DMSO) were arrayed into 384 round well, v-bottom polypropylene plates and diluted according to indicated dilution factors. Compound administration was performed in two separate steps. First, 15 μL of CSM-Galactose (induces expression of toxic protein) was dispensed into clear 384 well assay plates using a MULTIDROP™ Combi reagent dispenser. The diluted compound stock plates were then applied to the assay plates using an automated workstation (Perkin Elmer JANUS™) outfitted with a 384 pin tool containing slotted pins that deliver 100 nL of compound. The cultures described above were then diluted to a 2× concentration (0.03 and 0.08 for alpha-synuclein and ApoE, final OD600 of 0.015 and 0.04) in CSM-Galactose. For wild-type and Ole1/SCD1/SCD5 plasmid-containing strains, the 2× cell density was 0.02. In all experiments, 15 μL culture was then dispensed into the pinned assay plate to achieve 30 μL of the 1×OD600 culture and a top drug concentration of […]. For 96-well assays (FIGS. 2A and 2B), compound dilutions in DMSO were generated in 96 well plates and 1 μL was manually pipetted into 96 well clear bottom assay plates.
(§5) For experiments using a plasmid-borne copy of Ole1, SCD1, or SCD5 (FIGS. 4B, 7, and 8), media lacking uracil (SX-Ura, where X is glucose, raffinose, or galactose), was used for all steps of the compound profiling protocol to ensure its maintenance throughout the assay.
(§6) After yeast delivery, assay plates were incubated under humidified conditions at 30° C. for 24 to 40 h. ApoE4 rescue experiments were stopped at 24 h, aSyn experiments at 40 h, Ole1 at 24 h, and SCD1/SCD5 at 40 h. The growth of yeast was monitored by reading the OD600 of each well using a microplate reader (Perkin Elmer EnVision™). For model rescue experiments, raw data were processed by background subtracting and calculating a fold-change relative to DMSO control [(EXP−0.035)/(DMSO−0.035)—where 0.035 is the OD600 contributed by an empty well containing 30 μL of media alone]. For growth inhibition of wild-type cells, raw data were processed by background subtracting and converting values to a percent of the nontreated condition for that strain [(EXP−0.035)/(DMSO−0.035)×100%].

human SCD1 = target: T2, human SCD1 (Homo sapiens, UniProt O00767); test: Growth of humanized yeast expressing human SCD1 as sole desaturase; assay type: cell-based, humanized yeastized yeastized yeastized yeast; details: for half-maximal inhibitory concentration (IC50), SCD1 humanized strain: yeast growth
T2 construct: host or cells: S. cerevisiae ole1Δ strain (W303 pdr1Δ pdr3Δ background), pRS316 plasmid, TDH3 promoter
T2 sequence (O00767 1-359): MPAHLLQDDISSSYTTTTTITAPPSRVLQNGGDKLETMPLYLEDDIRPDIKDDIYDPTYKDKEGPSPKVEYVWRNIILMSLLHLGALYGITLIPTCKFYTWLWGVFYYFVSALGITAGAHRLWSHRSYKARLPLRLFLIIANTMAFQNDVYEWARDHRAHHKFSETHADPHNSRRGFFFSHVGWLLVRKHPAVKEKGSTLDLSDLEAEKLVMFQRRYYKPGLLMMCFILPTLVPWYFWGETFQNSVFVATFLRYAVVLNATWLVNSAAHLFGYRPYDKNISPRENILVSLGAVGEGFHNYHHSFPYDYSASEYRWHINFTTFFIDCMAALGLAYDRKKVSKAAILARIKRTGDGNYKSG
Procedure: The coding sequence of yeast OLE1 was also cloned into this plasmid). These clones were then transformed into the ole1Δ strain and plated on CSM-Ura media (CSM lacking uracil) with 2% glucose (w/v) and independent colonies were isolated and amplified.
as §1
Compound administration was performed in two separate steps. First, 15 μL of CSM-Galactose (induces expression of toxic protein) was dispensed into clear 384 well assay plates using a MULTIDROP™ Combi reagent dispenser. […] The cultures described above were then diluted to a 2× concentration (0.03 and 0.08 for alpha-synuclein and ApoE, final OD600 of 0.015 and 0.04) in CSM-Galactose. For wild-type and Ole1/SCD1/SCD5 plasmid-containing strains, the 2× cell density was 0.02.
as §5
After yeast delivery, assay plates were incubated under humidified conditions at 30° C. for 24 to 40 h. ApoE4 rescue experiments were stopped at 24 h, aSyn experiments at 40 h, Ole1 at 24 h, and SCD1/SCD5 at 40 h. The growth of yeast was monitored by reading the OD600 of each well using a microplate reader (Perkin Elmer EnVision™).

human SCD5 = target: T3, human SCD5 (Homo sapiens, UniProt Q86SK9); test: Growth of humanized yeast expressing human SCD5 as sole desaturase; assay type: cell-based, Saccharomyces cerevisiae expressing Saccharomyces cerevisiae expressing Saccharomyces cerevisiae expressing Saccharomyces cerevisiae expressing Saccharomyces cerevisiae expressing human SCD5 SCD5 SCD5 SCD5 SCD5; details: for half-maximal inhibitory concentration (IC50), SCD5 humanized strain: yeast growth
T3 construct: host or cells: S. cerevisiae ole1Δ strain (W303 pdr1Δ pdr3Δ background), pRS316 plasmid, TDH3 promoter
T3 sequence (Q86SK9 1-330): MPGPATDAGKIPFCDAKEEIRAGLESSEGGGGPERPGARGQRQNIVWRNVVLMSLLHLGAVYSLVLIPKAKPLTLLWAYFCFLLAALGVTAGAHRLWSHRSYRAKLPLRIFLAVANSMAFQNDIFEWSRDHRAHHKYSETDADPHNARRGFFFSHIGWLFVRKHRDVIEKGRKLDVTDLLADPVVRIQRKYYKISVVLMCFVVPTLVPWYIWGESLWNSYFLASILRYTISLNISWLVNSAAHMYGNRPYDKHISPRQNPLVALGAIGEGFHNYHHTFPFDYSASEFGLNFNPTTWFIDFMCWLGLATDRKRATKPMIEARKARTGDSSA
Description: as §3, §1, §4, §5, §6

[3] = percent of DMSO-treated condition

Compound | growth inhibition of yeast expressing OLE1 (yeast OLE1) | half-maximal inhibitory concentration (IC50), SCD1 humanized strain (human SCD1) | half-maximal inhibitory concentration (IC50), SCD5 humanized strain (human SCD5) | further results
COc1ccc(-c2noc(C3CCN(C(=O)CNC(=O)c4ccccc4)CC3)n2)cc1OC [Compound 1, N-(2-(4-(3-(3,4-dimethoxyphenyl)-1,2,4-oxadiazol-5-yl)piperidin-1-yl)-2-oxoethyl)benzamide] |  |  |  | rescue dose-response in ApoE4 model (OD600) [1]: bell-shaped dose-response curve; growth in control (non-inducing) condition (Ole1/SCD): growth decreased at this same concentration
Cc1nn(C)c2cc(-c3noc(C4CCN(C(=O)CNC(=O)c5ccccc5)CC4)n3)ccc12 [Compound 2, N-(2-(4-(3-(1,3-dimethyl-1H-indazol-6-yl)-1,2,4-oxadiazol-5-yl)piperidin-1-yl)-2-oxoethyl)benzamide] |  |  |  | decrease in abundance of unsaturated lipid phosphatidylcholine 16:1, 18:1 ([2]; 8 h treatment, wild-type yeast): > 12 fold; increase in abundance of saturated lipid phosphatidylcholine 26:0 ([2]; 8 h treatment, wild-type yeast): > 300 fold; lipid desaturation ([2]; yeast cells): inhibited lipid desaturation
CNC(=O)c1cccc(NC(=O)N2CCC(Oc3ccccc3Cl)CC2)c1 [Compound A939572] | resistant | low nanomolar | low nanomolar | 
C[C@@H]1C[C@@H]([C@H](O)CC2CC(=O)NC(=O)C2)C(=O)[C@@H](C)C1 [Cyclohexamide, cycloheximide] | inhibited growth of all three strains with the same potency |  |  | growth inhibition of SCD1-expressing yeast (human SCD1; [3]): inhibited growth of all three strains with the same potency; growth inhibition of SCD5-expressing yeast (human SCD5; [3]): inhibited growth of all three strains with the same potency
Cc1nnc(-c2ccc(N3CCC(Oc4ccccc4C(F)(F)F)CC3)nn2)s1 [MF-438] | resistant | low nanomolar | low nanomolar | 
O=C(O)Cn1nnc(-c2cc(N3CCC(Oc4cc(F)ccc4Br)CC3)no2)n1 [MK-8245] | resistant |  | low nanomolar | 
